Test results: patent publication US11318182B1, “Plant extract for skin infections” (priority 2021, dated 2022)

Tests used:
Format in all cases: cell-based
Settings in all cases: plant extract 29 μg/ml
Staphylococcus aureus = experiment: Growth inhibition zone on nutrient agar
Procedure: (§1) In the preferred embodiment, grinded garlic, ginger, papaya seed, clover bud, tamarind and the coconut oil components are extracted by 95% ethanol and kept in dark four days at room temperature. The extracted homogenous texture is filtered through Whatman filter paper no. 1 by using Thermo Scientific Vacuum USA. The filtered extract pH is adjusted to 5.6. A drop of Lavender is added to the final concentration and the extract is refrigerated in sealed, amber-colored bottles at 4° C. after the concentration is determined. […], Penicillium notatum, and Aspergillus niger used as fungal species. Known isolates of Escherichia coli, Bacillus serous and Staphylococcus aureus used as bacterial species. Sabouraud dextrose agar (SDA) medium and Nutrient agar plates (NAP) used to confirm in vitro inhibition of the fungus and bacteria in 24, 48 and 72 hours at room temperature and 37° C. respectively. The antimicrobial activity of plant-extract specified by the formation of an inhibition zone is measured by using Vernier calipers. Also, 28 individuals evaluated after using the mixed plant-extract within two weeks trial controlling fungal and bacterial infections of the skin. […] Staphylococcus aureus, Bacillus cereus and Escherichia coli grown on nutrient agar (NA). Aspergillus niger, Penicillium notatum and […] tested fungal species grown on Sabouraud dextrose agar (SDA). […] The SDA and NA plates were filled with 20 ml of media and solidified in 24 hours at 37° C. incubator before inoculation of the of the microorganisms and the products to be tested.

Bacillus cereus = experiment: Growth inhibition zone on nutrient agar
Procedure: as §1

Escherichia coli = experiment: Growth inhibition zone on nutrient agar
Procedure: as §1

Penicillium notatum = experiment: Growth inhibition zone on Sabouraud dextrose agar
Procedure: as §1

Aspergillus niger = experiment: Growth inhibition zone on Sabouraud dextrose agar
Procedure: as §1

Serratia marcescens = experiment: Growth inhibition zone on Sabouraud dextrose agar
Procedure: as §1

Clc1ccccc1C(c1ccccc1)(c1ccccc1)n1ccnc1 [Clotrimazole 1%, clotrimazole]
Growth inhibition by mm, S. Aureus (Staphylococcus aureus): 1.2 mm | Growth inhibition by mm, B. cereus (Bacillus cereus): 1 mm | Growth inhibition by mm, E. coli (Escherichia coli): 2.2 mm | Growth inhibition by mm, P. notatum (Penicillium notatum): 2.1 mm | Growth inhibition by mm, A. niger (Aspergillus niger): 1.8 mm | Growth inhibition by mm, S. marcescens (Serratia marcescens): 1.8 mm

C=CCCCCCCCCC(=O)O [Undecycleric add 25%, undecylenic acid]
Growth inhibition by mm, S. Aureus (Staphylococcus aureus): 1.1 mm | Growth inhibition by mm, B. cereus (Bacillus cereus): 1.1 mm | Growth inhibition by mm, E. coli (Escherichia coli): 1.2 mm | Growth inhibition by mm, P. notatum (Penicillium notatum): 1.6 mm | Growth inhibition by mm, A. niger (Aspergillus niger): 1.9 mm | Growth inhibition by mm, S. marcescens (Serratia marcescens): 1.7 mm

Penicillin
Growth inhibition by mm, S. Aureus (Staphylococcus aureus): 1.9 mm | Growth inhibition by mm, B. cereus (Bacillus cereus): 1.9 mm | Growth inhibition by mm, E. coli (Escherichia coli): 2.5 mm | Growth inhibition by mm, P. notatum (Penicillium notatum): 1.4 mm | Growth inhibition by mm, A. niger (Aspergillus niger): 1.7 mm | Growth inhibition by mm, S. marcescens (Serratia marcescens): 1.6 mm

CN(C)[C@@H]1C(O)=C(C(N)=O)C(=O)[C@@]2(O)C(O)=C3C(=O)c4c(O)cccc4[C@@](C)(O)[C@H]3C[C@@H]12 [Tetracycline]
Growth inhibition by mm, S. Aureus (Staphylococcus aureus): 1.3 mm | Growth inhibition by mm, B. cereus (Bacillus cereus): 1.3 mm | Growth inhibition by mm, E. coli (Escherichia coli): 1.2 mm | Growth inhibition by mm, P. notatum (Penicillium notatum): 0.7 mm | Growth inhibition by mm, A. niger (Aspergillus niger): 0.8 mm | Growth inhibition by mm, S. marcescens (Serratia marcescens): 0.7 mm
